Assay results published in patent US12441768B2, “Compositions and methods for treating endometriosis” (EndoMet Biosciences, Inc., priority 2018, dated 2025).
Where a SMILES comes first, the peptide text is derived from it.

Assays:
[1] = target: Wnt-responsive promoter (TCF/LEF); experiment: Wnt-dependent luciferase reporter assay; assay type: cell-based, murine
In short: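 Murine 3T3 fibroblasts carrying a TCF/LEF-driven luciferase reporter, stimulated with Wnt3a in the presence of increasing peptide concentrations or vehicle. Luminescence inhibition gave EC50 values in uM.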

[2] = target: T1, β-catenin (Homo sapiens, UniProt P35222); experiment: KD50 measurement using competitive fluorescence polarization (FP) with labelled TCF4; assay type: binding; conditions: fluorescence polarization, β-catenin; for Kd: read-out: β-Cat FP KD
T1 sequence (P35222 1-781): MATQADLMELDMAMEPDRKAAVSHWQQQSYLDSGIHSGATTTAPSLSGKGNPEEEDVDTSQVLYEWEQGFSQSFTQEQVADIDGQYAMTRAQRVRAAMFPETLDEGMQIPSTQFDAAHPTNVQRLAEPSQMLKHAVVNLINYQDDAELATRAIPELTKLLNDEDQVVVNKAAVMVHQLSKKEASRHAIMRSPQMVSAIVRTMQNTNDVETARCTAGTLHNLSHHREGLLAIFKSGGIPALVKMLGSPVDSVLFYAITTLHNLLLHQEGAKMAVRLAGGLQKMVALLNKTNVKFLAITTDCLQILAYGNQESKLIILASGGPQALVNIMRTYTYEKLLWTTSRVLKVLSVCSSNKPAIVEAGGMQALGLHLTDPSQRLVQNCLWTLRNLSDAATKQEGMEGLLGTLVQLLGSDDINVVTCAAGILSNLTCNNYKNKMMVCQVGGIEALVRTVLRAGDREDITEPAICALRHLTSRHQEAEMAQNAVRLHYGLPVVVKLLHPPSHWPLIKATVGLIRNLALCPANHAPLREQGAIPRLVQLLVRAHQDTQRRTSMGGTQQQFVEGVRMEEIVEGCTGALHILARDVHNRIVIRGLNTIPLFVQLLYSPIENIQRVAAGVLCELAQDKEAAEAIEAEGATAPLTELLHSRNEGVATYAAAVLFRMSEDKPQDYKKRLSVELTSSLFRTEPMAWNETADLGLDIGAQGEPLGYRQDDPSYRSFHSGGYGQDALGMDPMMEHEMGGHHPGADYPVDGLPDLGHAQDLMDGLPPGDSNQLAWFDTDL
In short: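 First, β-catenin at 100 nM is mixed with 5 nM labelled TCF4 at room temperature. Next, compound is added across serial dilutions (10 nM to 30 uM). Finally, fluorescence polarization is measured (ex 470 nm, em 520 nm); experiments are done three times.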

[3] = % Viability non-Wnt responsive cells

Row | SMILES | EC50 [1] [µM] | Kd [2] [µM] | β-Cat FP Hill slope [2] | viability [3] [%]
1 | CC[C@H](C)[C@@H]1NC(=O)[C@H](CC(C)C)NC(=O)[C@H]([C@@H](C)CC)NC(=O)[C@H](Cc2c[nH]c3ccccc23)NC(=O)[C@H](CCSC)NC(=O)[C@@H](N)CCCCNC(=O)CNC(=O)[C@H](Cc2c[nH]c3ccccc23)NC(=O)[C@H](Cc2ccccc2)NC(=O)[C@H](CO)NC1=O [compound 71] (HELM PEPTIDE1{K.M.W.I.L.I.S.F.W.G}$PEPTIDE1,PEPTIDE1,1:R3-10:R2$$$V2.0) | > 30 | > 30 | – | 93.7
2 | CC[C@H](C)[C@H](NC(=O)[C@H](CC(C)C)NC(=O)[C@H](Cc1ccccc1)NC(=O)[C@H](Cc1c[nH]c2ccccc12)NC(=O)[C@H](CCSC)NC(=O)[C@H](CCCNC(=N)N)NC(=O)[C@H](CO)NC(=O)[C@@H](N)CCSC)C(=O)N[C@@H](CO)C(=O)N[C@@H](Cc1ccccc1)C(=O)N[C@@H](Cc1c[nH]c2ccccc12)C(N)=O [compound 72] (H-MSRMWFLISFW-NH2) | > 30 | > 30 | – | 88.6
3 | CC[C@H](C)[C@H](NC(=O)[C@H](CC(C)C)NC(=O)[C@H](Cc1ccccc1)NC(=O)[C@H](Cc1c[nH]c2ccccc12)NC(=O)[C@H](CCSC)NC(=O)[C@H](CCCNC(=N)N)NC(=O)[C@@H](NC(=O)[C@@H](N)CCSC)[C@@H](C)O)C(=O)N[C@@H](CO)C(=O)N[C@@H](Cc1ccccc1)C(=O)N[C@@H](Cc1c[nH]c2ccccc12)C(N)=O [compound 73] (H-MTRMWFLISFW-NH2) | > 30 | > 30 | – | 97.3
4 | CC[C@H](C)[C@H](NC(=O)[C@H](CC(C)C)NC(=O)[C@H](Cc1ccccc1)NC(=O)[C@H](Cc1c[nH]c2ccccc12)NC(=O)[C@H](CCSC)NC(=O)[C@H](CCCNC(=N)N)NC(=O)[C@H](CCC(N)=O)NC(=O)[C@@H](N)CCSC)C(=O)N[C@@H](CO)C(=O)N[C@@H](Cc1ccccc1)C(=O)N[C@@H](Cc1c[nH]c2ccccc12)C(N)=O [compound 74] (H-MQRMWFLISFW-NH2) | > 30 | > 30 | – | 91.2
5 | CC[C@H](C)[C@H](NC(=O)[C@H](CC(C)C)NC(=O)[C@H](Cc1ccccc1)NC(=O)[C@H](Cc1c[nH]c2ccccc12)NC(=O)[C@H](CCCNC(=N)N)NC(=O)[C@H](CCCNC(=N)N)NC(=O)[C@H](CO)NC(=O)[C@@H](N)CCSC)C(=O)N[C@@H](CO)C(=O)N[C@@H](Cc1ccccc1)C(=O)N[C@@H](Cc1c[nH]c2ccccc12)C(N)=O [compound 75] (H-MSRRWFLISFW-NH2) | > 30 | > 30 | – | 99.2
6 | CC[C@H](C)[C@H](NC(=O)[C@H](CC(C)C)NC(=O)[C@H](Cc1ccccc1)NC(=O)[C@H](Cc1c[nH]c2ccccc12)NC(=O)[C@@H](NC(=O)[C@H](CCCNC(=N)N)NC(=O)[C@H](CO)NC(=O)[C@@H](N)CCSC)[C@@H](C)O)C(=O)N[C@@H](CO)C(=O)N[C@@H](Cc1ccccc1)C(=O)N[C@@H](Cc1c[nH]c2ccccc12)C(N)=O [compound 76] (H-MSRTWFLISFW-NH2) | > 30 | > 30 | – | 105

The next lines start with results.

Row | EC50 [1] [µM] | Kd [2] [µM] | β-Cat FP Hill slope [2] | SMILES | viability [3] [%]
7 | < 7.5 | > 30 | – | CSCC[C@H](NC(=O)[C@H](CCCNC(=N)N)NC(=O)[C@H](CO)NC(=O)[C@@H](N)CCSC)C(=O)N[C@@H](Cc1c[nH]c2ccccc12)C(=O)N[C@@H](Cc1ccccc1)C(=O)N[C@@H](CC(C)C)C(=O)N[C@@H](Cc1ccccc1)C(=O)N[C@@H](CO)C(=O)N[C@@H](Cc1ccccc1)C(=O)N[C@@H](Cc1c[nH]c2ccccc12)C(=O)NCC(=O)O [compound 63] (H-MSRMWFLFSFWG-OH) | 97.9
8 | 7.5 to 15 | 1 to 10 | 0.7 | CC[C@H](C)[C@H](NC(=O)[C@H](CC(C)C)NC(=O)[C@H](Cc1ccccc1)NC(=O)[C@H](Cc1c[nH]c2ccccc12)NC(=O)[C@@H](NC(=O)[C@H](CCCNC(=N)N)NC(=O)[C@H](CO)NC(=O)[C@@H](N)CCSC)C(C)C)C(=O)N[C@@H](CO)C(=O)N[C@@H](Cc1ccccc1)C(=O)N[C@@H](Cc1c[nH]c2ccccc12)C(=O)NCC(=O)O [compound 64] (H-MSRVWFLISFWG-OH) | 104
9 | > 30 | 1 to 10 | 0.7 | CC[C@H](C)[C@H](NC(=O)[C@@H]1CCCN1C(=O)[C@H](Cc1ccccc1)NC(=O)[C@H](Cc1c[nH]c2ccccc12)NC(=O)[C@H](CCSC)NC(=O)[C@H](CCCNC(=N)N)NC(=O)[C@H](CO)NC(=O)[C@@H](N)CCSC)C(=O)N[C@@H](CO)C(=O)N[C@@H](Cc1ccccc1)C(=O)N[C@@H](Cc1c[nH]c2ccccc12)C(=O)NCC(=O)O [compound 65] (H-MSRMWFPISFWG-OH) | 105
10 | 7.5 to 15 | 10 to 30 | 0.7 | CC[C@H](C)[C@H](NC(=O)[C@H](CC(C)C)NC(=O)[C@H](Cc1ccc(O)cc1)NC(=O)[C@H](Cc1c[nH]c2ccccc12)NC(=O)[C@H](CCSC)NC(=O)[C@H](CCCNC(=N)N)NC(=O)[C@H](CO)NC(=O)[C@@H](N)CCSC)C(=O)N[C@@H](CO)C(=O)N[C@@H](Cc1ccccc1)C(=O)N[C@@H](Cc1c[nH]c2ccccc12)C(=O)NCC(=O)O [compound 66] (H-MSRMWYLISFWG-OH) | 98.6
11 | < 7.5 | 1 to 10 | 0.99 | CC[C@H](C)[C@H](NC(=O)[C@H](CC(C)C)NC(=O)[C@H](Cc1ccccc1)NC(=O)[C@H](Cc1c[nH]c2ccccc12)NC(=O)[C@H](CCSC)NC(=O)[C@H](CCCNC(=N)N)NC(=O)CNC(=O)[C@@H](N)CCSC)C(=O)N[C@@H](CO)C(=O)N[C@@H](Cc1ccccc1)C(=O)N[C@@H](Cc1c[nH]c2ccccc12)C(=O)NCC(=O)O [compound 67] (H-MGRMWFLISFWG-OH) | 101
12 | 7.5 to 15 | > 30 | – | CC[C@H](C)[C@H](NC(=O)[C@H](CC(C)C)NC(=O)[C@H](Cc1ccccc1)NC(=O)[C@H](Cc1c[nH]c2ccccc12)NC(=O)[C@H](CCSC)NC(=O)[C@H](CCCNC(=N)N)NC(=O)[C@H](CO)NC(=O)[C@@H](N)CCSC)C(=O)N[C@@H](CO)C(=O)N[C@@H](CC(C)C)C(=O)N[C@@H](Cc1c[nH]c2ccccc12)C(=O)NCC(=O)O [compound 68] (H-MSRMWFLISLWG-OH) | 91.2
13 | > 30 | < 0.4 | 1.64 | CC[C@H](C)[C@H](NC(=O)[C@H](CC(C)C)NC(=O)[C@H](Cc1ccccc1)NC(=O)[C@H](Cc1c[nH]c2ccccc12)NC(=O)[C@H](CCSC)NC(=O)[C@H](CCCNC(=N)N)NC(=O)[C@H](CO)NC(=O)[C@@H](N)CCSC)C(=O)N[C@@H](CO)C(=O)N[C@@H](Cc1ccccc1)C(=O)N[C@@H](CCCNC(=N)N)C(=O)NCC(=O)O [compound 69] (H-MSRMWFLISFRG-OH) | 99.7
14 | > 30 | > 30 | – | CSCC[C@H](NC(=O)[C@H](CCCNC(=N)N)NC(=O)[C@H](CO)NC(=O)[C@@H](N)CCSC)C(=O)N[C@@H](Cc1c[nH]c2ccccc12)C(=O)N[C@@H](Cc1ccccc1)C(=O)N[C@@H](CC(C)C)C(=O)N[C@@H](CC(N)=O)C(=O)N[C@@H](CO)C(=O)N[C@@H](Cc1ccccc1)C(=O)N[C@@H](Cc1c[nH]c2ccccc12)C(=O)NCC(=O)O [compound 70] (H-MSRMWFLNSFWG-OH) | 98.5
